From patent US7252953B2, “Method of detecting and preventing Alzheimer's disease, particularly at prodromal and early stages” (United States of America Department of Veterans Affairs, priority 2002, dated 2007)

Legend:
[1] = tested on: PAR4-GRK2; test: GRK-PAR binding in microglial cells by IP and WB: PAR4-GRK2; assay type: cell-based, murine; details: thrombin 100 nM alone, 30 seconds, compared to untreated microglial cells
Protocol: (§1) Primary microglial cultures were prepared from neonatal mouse (C57BL6) brains as previously described (Reference 29) and maintained in Delbecco's modified Eagle's medium with F-12 nutrient mixture (DMEM/F12) containing 10% fetal bovine sera (FBS) and antibiotics. N9 clonal murine microglial cell cultures were maintained in Iscoves modified Delbecco's medium (IMDM) containing 5% heat-inactivated FBS, 2 mM L-glutamine, 50 μM 2-mercaptoethanol and antibiotics. Treatment of both primary and N9 microglial cells were performed under serum-free conditions. Freshly solublized Aβ (BioSource, Camarillo, Calif.) peptides were prepared and characterized as previously described (References 30 and 44) and were used in all in vitro experiments. […]
(§2) Cultured cells were lysed in pre-chilled 2×IP buffer I (Tris, 20 mM, pH 7.4; NaCl, 300 mM; EDTA, 2 mM; 2 mM EGTA, pH 8.0; 0.4 mM sodium ortho-vanadate, 2% Triton X-100; 1% NP-40; 0.4 mM PMSF) supplemented both with phosphatase and protease inhibitor cocktails. After centrifugation, the supernatants were collected and total protein concentrations were determined by the bicinchoninic acid assay (BCA). […] Both antibodies to GRK2 and GRK5 (Santa Cruz) were diluted 1:500 for WB, other routine procedures, WB for total and phospho-p44/42 MAPK, and semi-quantitative analysis of protein band density were performed as previously described (Reference 29). […]

[2] = tested on: p38 MAPK; test: p38 MAPK phosphorylation in microglial cells (WB); assay type: cell-based, murine; details: substance alone
Protocol: (§3) Primary microglial cultures were prepared from neonatal mouse (C57BL6) brains as previously described (Reference 29) and maintained in Delbecco's modified Eagle's medium with F-12 nutrient mixture (DMEM/F12) containing 10% fetal bovine sera (FBS) and antibiotics. N9 clonal murine microglial cell cultures were maintained in Iscoves modified Delbecco's medium (IMDM) containing 5% heat-inactivated FBS, 2 mM L-glutamine, 50 μM 2-mercaptoethanol and antibiotics. Treatment of both primary and N9 microglial cells were performed under serum-free conditions. Freshly solublized Aβ (BioSource, Camarillo, Calif.) peptides were prepared and characterized as previously described (References 30 and 44) and were used in all in vitro experiments. Unless specified, cells were always pretreated with sAβ for 5 min and then followed by challenge with α-thrombin (100 nM or as indicated), glutamate (2 mM) or LPS (5 ng/ml).
(§4) Cultured cells were lysed in pre-chilled 2×IP buffer I (Tris, 20 mM, pH 7.4; NaCl, 300 mM; EDTA, 2 mM; 2 mM EGTA, pH 8.0; 0.4 mM sodium ortho-vanadate, 2% Triton X-100; 1% NP-40; 0.4 mM PMSF) supplemented both with phosphatase and protease inhibitor cocktails. After centrifugation, the supernatants were collected and total protein concentrations were determined by the bicinchoninic acid assay (BCA). Equal amounts (250 μg) of cell lysates from each group were mixed with 20 μl (˜5 μg) of either PAR1 or PAR4 antibodies, and brought to a total volume of 1 ml in 1×IP buffer. Following a 1 hour incubation at 4° C., appropriate secondary antibody-agarose conjugates were added followed by incubation (30 min with agitation), centrifugation and sufficient washes. The pellets were resuspended in 30 μl of electrophoresis sample buffer and boiled for 5 min. The supernatants were directly used for polyacrylamide sodium dodecyl sulfate gel electrophoresis (SDS-PAGE) and WB analysis. To prepare subcellular fractions of brain samples, we homogenized fresh or fresh-frozen tissues in Tris buffered saline solution (Tris, 10 mM, pH 7.4; NaCl, 150 mM; EDTA, 1 mM; 1 mM EGTA, pH 8.0; 0.2 mM sodium ortho-vanadate) supplemented with protease inhibitor cocktails. After centrifugation (12,000 g at 4° C. for 15 min), the supernatants were collected as cytosolic fractions. The pellets were resuspended in 1×IP buffer containing protease inhibitor cocktail. Following brief sonication and centrifugation (12,000 g at 4° C. for 15 min), the supernatants were collected as membrane fractions. Both antibodies to GRK2 and GRK5 (Santa Cruz) were diluted 1:500 for WB, other routine procedures, WB for total and phospho-p44/42 MAPK, and semi-quantitative analysis of protein band density were performed as previously described (Reference 29).
(§5) In previous studies, we found thrombin signaling via PARs in microglial cells involving [Ca^2+]i increase and transient activation of both p38 and p44/42 mitogen-activated protein kinases (MAPKs) (Reference 29). To understand potential consequences of GRK dysfunction induced by sAβ, for these studies we also assessed changes in thrombin signaling in sAβ-pretreated microglial cells.
(§6) FIG. 5A, N9 microglial cells were pre-treated with 500 nM sAβ1-42 (arrow “1”) followed by 100 nM thrombin treatment (arrow “2”). Changes in [Ca^2+]i were measured as previously described (Reference 29) from three separate experiments. […] For both FIGS. 5B and 5C, lane M=Marker, 1=Control (0 min), 2=Control (25 min), 3=Aβ1-42 (25 min), 4=Thrombin (20 min), 5=Aβ1-42+thrombin (20 min post-Aβ), 6=Control (24 h), 7=Aβ1-42 (24 h), 8=Thrombin (24 h) and 9=Aβ1-42+thrombin (24 h post-Aβ). “P” and “T” indicate phosphorylated and total p38 or p44/42 MAPKs, respectively.

[3] = tested on: [Ca^2+]i; test: Ca2+ imaging (Fluo-4) in microglial cells; assay type: cell-based, murine
Protocol: as §3
We measured [Ca^2+]i in microglial cells using Fluo-4 (2 μM) with the aid of a Nikon BioRadiance triple laser scanning confocal microscope. Image collection, quantification and data analysis were performed as previously described (Reference 29).
as §5, §6

[4] = tested on: TNF-α; test: TNF-α release in N9 clonal murine microglial cells; assay type: cell-based; details: for TNF-α release induced by the activator alone: single dose
Protocol: as §3
(§7) TNF-α production in microglial culture media was measured and standardized as previously described (Reference 29).
(§8) Given our results that sAβ disrupts GRK function and inhibits GPCR desensitization in microglia, we next investigated whether such signaling dysregulation might lead to cellular functional changes in microglia. Both primary and N9 clonal murine microglial cultures were used and TNF-α secretion in culture media was measured as an outcome. […] Moreover, the potentiation effect of sAβ on thrombin and glutamate-induced microglial activation was dose-dependent, with a minimal effective concentration (ECmin) of 20 nM and a maximal EC (ECmax) of 500 nM. Furthermore, the enhancement effect was not observed if sAβ was given after (10 min) thrombin or glutamate treatments. […] Together with the evidence that sAβ inhibits GRK-GPCR interactions and causes prolongation of GPCR signaling, we conclude that sAβ, by disrupting GRK function, alters microglial reactivity to specific GPCR activators.
FIG. 6A, pretreatment with sAβ1-42 potentiated (p<0.01) TNF-α release induced by increasing doses of thrombin (Thr) as indicated from primary mouse brain microglial cultures. n=4. […] The ECmin and ECmax for sAβ's potentiation are approximately 20 nM and 500 nM, respectively. n=6.

[5] = tested on: PAR1-GRK2; test: GRK-PAR binding in microglial cells by IP and WB: PAR1-GRK2; assay type: cell-based, murine; details: thrombin 100 nM alone, 30 seconds, compared to untreated microglial cells
Protocol: as §1, §2

[6] = tested on: PAR4-GRK5; test: GRK-PAR binding in microglial cells by IP and WB: PAR4-GRK5; assay type: cell-based, murine; details: thrombin 100 nM alone, 30 seconds, compared to untreated microglial cells
Protocol: as §1, §2

[7] = tested on: p44/42 MAPK; test: p44/42 MAPK phosphorylation in microglial cells (WB); assay type: cell-based, murine; details: substance alone
Protocol: as §3, §4, §5, §6

[8] = tested on: TNF-α; test: TNF-α release in primary mouse brain microglial cultures; assay type: cell-based; details: 5 min pretreatment, FIG. 6A
Protocol: as §3, §7, §8
FIG. 6A, pretreatment with sAβ1-42 potentiated (p<0.01) TNF-α release induced by increasing doses of thrombin (Thr) as indicated from primary mouse brain microglial cultures. n=4. […]

[9] = tested on: GRK5; test: GRK5 subcellular distribution in sAβ-treated microglial cells (immunocytochemistry, semi-quantified); assay type: cell-based, murine; details: ICC; for translocation of GRK5 from cell membrane to cytosol: 5 min, primary murine microglial cells, serum-free medium
Protocol: Primary microglial cultures were prepared from neonatal mouse (C57BL6) brains as previously described (Reference 29) and maintained in Delbecco's modified Eagle's medium with F-12 nutrient mixture (DMEM/F12) containing 10% fetal bovine sera (FBS) and antibiotics. N9 clonal murine microglial cell cultures were maintained in Iscoves modified Delbecco's medium (IMDM) containing 5% heat-inactivated FBS, 2 mM L-glutamine, 50 μM 2-mercaptoethanol and antibiotics. Treatment of both primary and N9 microglial cells were performed under serum-free conditions.
Microglial cells were seeded onto poly-L-lysine-coated 8-chamber slides at a density of 1×10^4/well. After various treatments, cells were immediately fixed with pre-chilled (4° C.) 5% acetic acid in methanol for 45 min at 4° C., followed by washing with PBS. The fixed cells were blocked and double-stained with phalloidin-FITC (1:1,000) and anti-GRK5 (1:500) or GRK2 (1:500). Secondary antibody-Cy3 conjugates (1:500) staining, washing, mounting and confocal microscopic visualization were performed routinely as previously described (Reference 29).
Briefly, the selected cell image corresponding to GRK staining, was copied, enlarged, inverted and rotated to an appropriate position for quantification with NIH Image. […] FIGS. 3E and F show the examples of profiles for the solid-line indicated levels in FIGS. 3C and D, respectively. The dark and light grey areas in FIGS. 3E and F represent membrane and Cyto, respectively. The sum of areas for membrane and Cyto from all slices in each cell represents GRK subcellular distribution in this particular cell. For each treatment, 20 randomly selected cells were quantified and the average data were shown.
Microglial-mediated inflammation is an important pathological component of AD (Reference 28). […] Thrombin, a serine protease is known to activate protease-activated GPCRs, (PARs) such as PAR1 (Reference 29) and PAR4 in microglia.
N9 microglial cells were treated with sAβ1-42 (500 nM) for 5 minutes. […] The detailed methods for semi-quantification of GRK subcellular distribution are described in Methods section (above).

[10] = within 20 min post-Aβ treatment
[11] = 5 min pretreatment, N9 cells, FIG. 6B

Compound: thrombin
- increase of PAR4 binding to GRK2 [1]: ~2 fold
- p38 MAPK phosphorylation ([2]; 24 h): returned to basal levels
- p38 MAPK phosphorylation [2, 10]: increased phosphorylation
- [Ca^2+]i above basal levels after the rapid decrease ([3]; thrombin alone (100 nM)): approximately 100 nM
- change of [Ca^2+]i ([3]; thrombin alone (100 nM)): steep and sharp increase
- duration of the [Ca^2+]i level above basal ([3]; thrombin alone (100 nM)): at least 4 min
- change of [Ca^2+]i ([3]; thrombin alone (100 nM), listed as Thrombin): sharp increase and rapidly decrease
- TNF-α release induced by the activator alone ([4]; N9 cells, FIG. 6B): significantly stimulated
- increase of PAR1 binding to GRK2 [5]: ~30 fold
- increase of PAR4 binding to GRK5 [6]: ~4 fold
- p44/42 MAPK phosphorylation ([7]; 24 h): returned to basal levels
- p44/42 MAPK phosphorylation [7, 10]: increased phosphorylation

Compound: sAβ1-42: Freshly solubilized soluble β-amyloid 1-42 peptide (BioSource), mixture of monomeric and oligomeric Aβ
- effect of sAβ pretreatment on thrombin-induced TNF-α release [8]: potentiated
- translocation of GRK5 from cell membrane to cytosol ([9]; 50 nM peptide): To a lesser extent, similar GRK5 changes were also observed
- translocation of GRK5 from cell membrane to cytosol ([9]; 500 nM peptide): induced a rapid translocation of GRK5 from cell membrane to cytosol
- translocation of GRK5 from membrane to cytosol compartment ([9]; 500 nM, 5 minutes, N9 microglial cells): induced a rapid translocation of GRK5 from membrane to cytosol compartment
- change of free [Ca^2+]i ([3]; sAβ1-42 500 nM alone): slow and moderate increase
- time for [Ca^2+]i to return to basal levels ([3]; sAβ1-42 500 nM alone): ≤ 4 min
- effect of sAβ pretreatment on LPS-induced TNF-α release [4, 11]: not
- effect of sAβ pretreatment on glutamate-induced TNF-α release [4, 11]: dose-dependently potentiated
- effect of sAβ pretreatment on thrombin-induced TNF-α release [4, 11]: dose-dependently potentiated
- enhancement of TNF-α release when sAβ is given after thrombin or glutamate (post-treatment) ([4]; sAβ given 10 min after thrombin or glutamate): not

Compound: N[C@@H](CCC(=O)O)C(=O)O [glutamate]
- TNF-α release induced by the activator alone ([4]; N9 cells, FIG. 6B): significantly stimulated

Compound: sAβ1-40: Freshly solubilized soluble β-amyloid 1-40 peptide (BioSource)
- translocation of GRK5 from cell membrane to cytosol ([9]; 50 nM peptide): not
